Measurements as given in patent US5721267A, “Chemotherapeutic pyrrolocarbazole derivatives” (Syntex (U.S.A.) Inc., priority 1997, dated 1998).
pIC50: −log10 of the molar value.

Biological target: T1, β1 isozyme of PKC from rat brain (Rattus norvegicus, UniProt P68403)
T1 construct: β1 isozyme of PKC from rat brain; from tissue; host or cells: rat brain
Assay: Protein kinase C inhibition assay (32P incorporation from γ-32P ATP into synthetic peptide substrate)
Assay type: biochemical
Details: activated by 5×10^-6 M diC8 and 1 μg/mL phosphatidylserine, 50 μM ATP, read-out: IC50 (concentration necessary to achieve 50% inhibition of PKC)
Procedure: In vitro activity for protein kinase C inhibition, is quantitated by measuring incorporation of […] from γ-^32 P ATP into synthetic peptide substrates.
Protein Kinase C (PKC) inhibitory activity is quantitated by measuring incorporation of ^32 P from γ-^32 P ATP into synthetic peptide substrates. The inhibitory potential is measured using the β1 isozyme of PKC from rat brain and the synthetic peptide substrate ala-lys-arg-arg-arg-leu-ser-ser-leu-arg-ala.
A reaction mixture containing 25 mM Tris-HCl, pH 7.5, 2.5 mM Mg(NO3), 1.0 mM EGTA, 20 μM substrate, 1 μg/mL phosphatidlserine (PS), 5×10 ^-6 M diacylglycerol(di-C8), and 50 μM ATP is spiked with γ-^32 P ATP (>5,000 Ci/mmol) to provide approximately 10^6 CPM per reaction and 0.08 μg/mL PKC in a 50 μl volume per well. The assay is run with or without test compound, added at various concentrations. After five minutes incubation at room temperature, the reaction is stopped by the addition of 0.2V of a 50% TCA solution. A 30 μl sample from each well (control and test compound) is then spotted onto Whatman P-81 ion exchange chromatography paper, and 32-P incorporation is then counted on a Beckman LS 5000 TA liquid scintillation counter. […]
% Inhibition=1.0 -[(sample CPM-basal CPM)/(total CPM-basal CPM)]×100 and the concentration necessary to achieve 50% Inhibition is determined.

T1 sequence (P68403 whole entry): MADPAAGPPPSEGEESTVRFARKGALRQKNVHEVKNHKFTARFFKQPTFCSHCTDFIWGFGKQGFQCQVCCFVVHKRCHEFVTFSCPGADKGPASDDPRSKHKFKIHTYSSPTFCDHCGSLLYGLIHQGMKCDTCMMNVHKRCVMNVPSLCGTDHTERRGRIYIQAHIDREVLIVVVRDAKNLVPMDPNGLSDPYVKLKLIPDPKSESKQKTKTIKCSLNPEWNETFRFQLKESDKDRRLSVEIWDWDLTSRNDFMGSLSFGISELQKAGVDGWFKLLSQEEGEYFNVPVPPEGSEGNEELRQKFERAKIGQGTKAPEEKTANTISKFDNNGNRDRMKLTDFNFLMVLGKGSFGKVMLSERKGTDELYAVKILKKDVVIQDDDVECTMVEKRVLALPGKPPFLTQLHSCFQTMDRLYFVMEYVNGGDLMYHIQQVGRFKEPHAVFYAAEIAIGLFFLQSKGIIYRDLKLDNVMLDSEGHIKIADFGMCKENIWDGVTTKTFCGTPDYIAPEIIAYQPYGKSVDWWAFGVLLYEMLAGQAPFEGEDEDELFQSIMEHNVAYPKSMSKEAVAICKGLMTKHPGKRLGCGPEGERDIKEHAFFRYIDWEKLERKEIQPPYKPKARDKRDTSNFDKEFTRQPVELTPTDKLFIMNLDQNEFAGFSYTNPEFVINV

Structure (SMILES): CNCCCn1c2ccccc2c2c3c(c(-c4ccsc4)cc21)C(=O)NC3=O [1,3-dioxo-6-(3-methylaminopropyl)-1,2,3,6-tetrahydro-4-(thiophen-3-yl)-pyrrolo[3,4-c]carbazole]
- pIC50: 7.52
